Structure (SMILES)	melting point
COC(=O)C1=C(C)Nc2ccccc2NC1c1ccccc1[N+](=O)[O-] (centres undefined)	190 to 192 °C
COC(=O)Cc1ccc(OCC(C)NCC(O)c2cccc(Cl)c2)c(O)c1 (centres undefined)	68 °C
NC(=O)c1cc2ccc(OCC(O)CCl)cc2o1 (centres undefined)	109 to 110 °C
CCCCC1=NC(C)(C)C(=O)N1Cc1ccc(-c2ccccc2C(=O)OC(C)(C)C)cc1	98 to 100 °C
CC(C)C(CCCCCCCC(=O)O)NCc1ccc(F)cc1 (centres undefined)	78 to 82 °C
Cc1ccc(S(=O)(=O)Nc2ccc(/C(CN3CCN(C)CC3)=N/O)cc2)cc1	192 to 193 °C
Cc1nnc2ccc(-c3ccc(Cl)c(C(F)(F)F)c3)nn12	267 to 269 °C
O=C(O)CSCc1nccc2ccccc12	186 to 187 °C
Cc1oc(-c2ccccc2)nc1COc1ccc(Cn2cc(CCC(=O)O)c(OCc3ccccc3)n2)cc1	108 to 109 °C
CN(C)c1cccc2c1C(=O)NS2(=O)=O	228 to 229 °C
COC(=O)C1=C(C)NC2=C(C(=O)OC2)C1c1ccccc1C (centres undefined)	224 to 225 °C
COc1nc(C)c(N2CCCn3c2nc2c(Br)ccc(C(OC(F)F)C(F)(F)F)c23)c(C)n1 (centres undefined)	211 to 213 °C
Clc1cccc(-c2n[nH]cc2-c2ccnc(NCc3ccccc3)c2)c1	179 to 180 °C
CC(C)n1nc(-c2c(-c3ccccc3)nn3ccc(N4CCN(C(=O)c5ccccc5)CC4)cc23)ccc1=O	124 to 126 °C
COC(=O)COc1ccc(C(=O)CBr)cc1OC	105 to 107 °C
N#Cc1cc2c(s1)CCCC2NC=O (centres undefined)	131 to 134 °C
CN(C)C=C(C#N)C(=O)Nc1cc(Cl)ccc1Cl	175 to 176 °C
CCN1c2ccccc2CC(C#N)c2ccccc21 (centres undefined)	127 to 129 °C
Clc1ccc2c(c1)C(c1ccccc1)=NCc1nnc(COC(c3ccccc3)c3ccccc3)n1-2	202 to 203 °C
COc1cc2c(cc1Nc1ncc(Cl)c(NC3(C(=O)OC(C)C)CCCC3)n1)CCN(CC(=O)N(C)C)CC2	65 to 70 °C
CCOC(=O)CNc1cc(F)ccc1C(=O)O	123 to 125 °C
COCC(=O)c1ccc(Br)nc1	110 to 112 °C
C[C@]1(CN2CCN(N=Cc3cc4cc(C(F)(F)F)ccc4o3)CC2)Cn2cc([N+](=O)[O-])nc2O1	190 to 192 °C
Cc1ccc(S(=O)(=O)N(CCO)CCN(CCN(CCO)S(=O)(=O)c2ccc(C)cc2)S(=O)(=O)c2ccc(C)cc2)cc1	110 to 112 °C
FC(F)(F)C1(c2cc(Cl)cc(Cl)c2)CCN(c2ccc(-n3cnnn3)c(Br)c2)C1 (centres undefined)	193 to 194 °C

Structure (SMILES)	melting point
C=Cn1ccnc1C#N	81.5 °C
CC(C)n1nc(-c2sc(NC(=O)c3ccc(CNCCO)cc3)nc2-c2ccccc2)ccc1=O	111 to 113 °C
COC(=O)c1cc2cccc(C=O)c2[nH]1	87 °C
CCC1(CC(=O)O)OCCc2nc(-c3ccccc3)sc21 (centres undefined)	106 to 108 °C
N#Cc1cc(O)c(O)c(C#N)c1CCCCC(=O)O	210 to 215 °C
CN(C)Cc1cccc(CSCCNc2ncc(Cc3cccnc3)c(=O)[nH]2)c1	143 to 145 °C
CNC1([C@@H]2CCN(c3ccc4c(=O)c(C(=O)O)cn([C@@H]5C[C@@H]5F)c4c3C)C2)CC1	223 to 224 °C
CCc1cc(OCc2ccc(-c3ccccc3C#N)cc2)c2c(n1)CCCC2	147 to 148 °C
O=C(c1ccccc1)c1cc(C(F)(F)F)ccc1NC=C[N+](=O)[O-]	196 to 198 °C
Clc1ccc(C2(CBr)OCC(COc3ccc4ccccc4c3)O2)c(Cl)c1 (centres undefined)	118 °C
CN(C=O)c1ccc2[nH]cc(CC#N)c2c1	118 to 120 °C
O=C1C=C2CCCCC2N1c1ccc(O)c(Cl)c1 (centres undefined)	216 °C
CCOC(=O)c1cn(CC)c2cc(-c3cc(C)no3)ccc2c1=O	180 to 185 °C
CC(C)C(=O)NS(=O)(=O)c1cccc([N+](=O)[O-])c1	136 to 138 °C
COc1ccc2c(Cc3ncc(Cl)cc3Cl)nncc2c1C=Cc1ccccc1	180 to 182 °C
O=C(c1ccccc1)N1CCN(c2c(Cl)cncc2Cl)CC1	132 to 134 °C
O=c1[nH][nH]c(=O)n1-c1c(F)cc(F)cc1F	221 to 222 °C
CN1CCN(Cc2ccc(NC(=O)c3ccc(Cl)c(C#Cc4ccc(NC5CCC5)nn4)c3)cc2C(F)(F)F)CC1	132 to 133 °C
COc1cc(SC)sc1C1NC(C)(C)CO1 (centres undefined)	56 to 58 °C
O=C(c1ccc(Cl)nc1)N1Cc2cccn2Cc2ccccc21	165 to 167 °C
CCCn1c(=O)c2[nH]c(/C=C/c3ccccc3Cl)nc2n(CCC)c1=O	269 to 270 °C
O=C(N[C@H](Cc1ccc(C(F)(F)F)cc1)[C@@H](O)c1ccc(F)cc1)c1c2ccccc2cc2ccccc12 (racemic)	251 to 252 °C
O=C(O)c1cc(Br)ccc1Sc1ccccc1	171 to 173 °C
COc1ccc(-c2ccc3c(c2)C=C(C(=O)Nc2ccc(CN(C)C4CCOCC4)cc2)CCS3(=O)=O)c(OC)c1	175 to 178 °C
COc1c(-c2ccc3cc(NS(C)(=O)=O)ccc3c2)cc(-n2ccc(=O)[nH]c2=O)cc1C(C)(C)C(=O)O	> 300 °C

Structure (SMILES)	melting point
O=C(COCc1csc(-c2ccc(F)cc2)n1)c1ccccc1	104 to 106 °C
CN1COc2cc(CCCN3CCOCC3)cnc21	< 80 °C
O=C1C[C@@H]2[C@@H](/C=C/[C@@H](O)COc3cccc(Cl)c3)[C@H](OC(=O)c3ccccc3)C[C@@H]2O1	101 to 102 °C
O=C(O)[C@H](Cc1ccccc1)N[C@@H](CCc1ccccc1)C(=O)OCc1ccccc1	141 to 144 °C
CCOC(=O)Nc1c(C)cc(Cl)cc1C(=O)O	124 to 126 °C
O=C(c1ccc(Cl)cc1)c1cccnc1N1CCCCC1=O	154 to 156 °C
CCc1ncnc(NC2CCC3(CC2)OCC(c2ccccc2)O3)c1Cl (centres undefined)	105 to 106 °C
COC(=O)/C=C/n1cnc2ccc(OC)cc2c1=O	184 to 186 °C
O=C(O)C1=Cc2cc(F)c(F)cc2NC1C(F)(F)F (centres undefined)	187 to 189 °C
CCCCc1nc2ccn(Cc3ccccc3)c(=O)c2n1Cc1ccc(-c2ccccc2-c2nnn[nH]2)cc1	130 °C
COc1ccc(C(CC(C)=O)N2C(=O)c3cccc(N(S(C)(=O)=O)S(C)(=O)=O)c3C2=O)cc1OC (centres undefined)	194 to 196 °C
CCCCc1nc(Cl)c(CO)n1Cc1ccc(N)cc1	101 to 103 °C
CC1(Br)Cc2cc(C(=O)O)ccc2C1=O (centres undefined)	203 to 205 °C
CO/N=C1\CCCC[C@@H]1NC(=O)c1ncc(O[C@@H](C)C(F)(F)F)c(-c2ccc(Cl)cc2)n1	180 to 182 °C
COC(OC)C(CNC(=O)c1cc2cc(O)cc([N+](=O)[O-])c2[nH]1)SCc1ccccc1 (centres undefined)	134 to 135 °C
CC(=O)OC1C(OC2=NN(Cc3ccccc3)C(=O)C3CC23)c2cc(C#N)ccc2OC1(C)C (centres undefined)	149 to 151 °C
CC(C)C(C)(C#N)N1C(=O)c2ccc3c(ccn3C)c2C1=O (centres undefined)	123 to 128 °C
Cc1ccc(Cl)c(C(=O)c2ccc(Cl)cc2)c1	85 to 90 °C
N#Cc1cc(-c2c3ccccc3cc3sc4ccccc4c23)ccc1O	231 to 232 °C
Cc1cc(C)nc(NC(N)=Nc2ccc(Cl)cc2)n1	203 °C
NC(=S)Nc1ccccc1O	161 °C
O=c1ccc(Cl)cn1[C@@H]1c2cc([N+](=O)[O-])ccc2OCC[C@H]1O (relative stereo)	219 to 222 °C
NC1CNC(=O)C12CC2 (centres undefined)	97 to 99 °C
Nc1nc(Cl)c(NC=O)c(N[C@@H]2CC=C(CO)C2)n1	148 to 150 °C
CCSc1cc(C)nc(SCC)c1NC(=O)CN1CCN(CCSc2nc3ccc(COC)c(COC)c3o2)CC1	118 to 120 °C

Structure (SMILES)	melting point
O=C(O)c1cc(Cl)c(OCc2ccccc2)c(Cl)c1	211 to 213 °C
Cn1cc(C=CC(=O)NCN2CCCC2)c([N+](=O)[O-])n1	180 to 183 °C
Cn1c(CNC(=O)Nc2cccc(C(=O)O)c2)c(-c2ccccc2)c2cc(Cl)ccc2c1=O	236 to 239 °C
N#Cc1c(-c2ccc(Cl)cc2)[nH]c(C(F)(F)F)c1Sc1ccc(Cl)c(Cl)c1	94 to 97 °C
N#Cc1nn(-c2c(Cl)cc(C(F)(F)F)cc2Cl)cc1C1CC1(Cl)Cl (centres undefined)	123 to 126 °C
Cc1ccn(-c2ccc(C(=O)c3cccc4c3Nc3ncccc3CN4)c(F)c2)n1	122 to 125 °C
COc1ccc2cnc(Cl)nc2c1C(C)C	135 to 137 °C
O=C1c2ccccc2C(=O)N1CSc1cccnc1	123 to 124 °C
COc1cc2c(cc1OC)CCCC(C(=O)N1CCN(C(=S)c3cc(OC)c(OC)c(OC)c3)CC1)=C2	172 to 173 °C
CN(C)C/C=C/C(=O)Nc1cc2c(Nc3ccc(F)c(Br)c3)ncnc2cn1	163 to 166 °C
COC(=O)CC[C@H](NC(=O)CCCCC=Cc1cnc2nc(NC(=O)C(C)(C)C)nc(O)c2c1)C(=O)OC	79 to 81 °C
O=S(=O)(NCc1ccccc1)c1ccc2nc(S)sc2c1	214 to 215 °C
CN1C(=O)CSC(c2cccc(Cl)c2)c2cc(C(O)(c3ccc(Cl)cc3)c3cncn3C)ccc21 (centres undefined)	186 °C
CCCc1nccn1-c1nc(Cl)nc2nc[nH]c12	224 to 225 °C
CC(=O)NCC1CN(c2ccc(-n3cccc3)c(F)c2)C(=O)O1 (centres undefined)	198 to 200 °C
COc1ccc2c(c1F)CSCC2=O	85 to 92 °C
Nc1cc(C=C2c3ccccc3CCc3ccccc32)ccc1O	159 °C
CCN(C)C(=O)c1cc(-c2ccccc2)oc1-c1ccc(OC)c(OC)c1	74 °C
Nc1cccc2cc(C(=O)N3CCc4ccccc4C3)cnc12	238 to 240 °C
COc1ccc(-c2cc(Cl)on2)cc1	82 to 83 °C
O=c1[nH]c2ncc(-c3cn[nH]c3)nc2n1CC1CCCCC1	246 to 248 °C
COc1cc(Nc2c(C#N)cnc3c(-c4ccc(CN(C)C)cc4)csc23)c(Cl)cc1Cl	201 to 202 °C
O=C(NCc1ccc(Cl)cc1)c1cn2c(CO)cc3cccc(c1=O)c32	211 to 213 °C
O=C1c2cc([N+](=O)[O-])ccc2SC12CC2	126 to 128 °C

— a melting point compilation (Tetko et al.; mined from patent text by program, amines drawn as free bases though some values may be those of a salt)
